pEC50, pIC50: −log10 of the molar value. Structures can show the parent of a compound that is named as a salt. Where two headings read alike, the source gives them in different places.
Legend:
Cyclooxygenase 1 (COX1) = target: T1, Cyclooxygenase 1 (COX1) (Homo sapiens, UniProt P23219); test: Enzymatic assay, COX1; format: biochemical
T1 construct: purchased BPS Bioscience

[1] = target: T2, Vascular endothelial growth factor receptor 2 (KDR tyrosine kinase) (VEGFR2) (Homo sapiens, UniProt P35968); test: biochemical; format: binding
T2 construct: made in house; host or cells: E. coli BL21-derived host (T7 phage) or HEK-293

[2] = target: T3, Monoamine oxidase type A (MAOA) (Homo sapiens, UniProt P21397); test: Enzymatic assay, MAOA (kynuramine substrate); format: biochemical
T3 construct: purchased Sigma
T3 sequence (P21397 1-527): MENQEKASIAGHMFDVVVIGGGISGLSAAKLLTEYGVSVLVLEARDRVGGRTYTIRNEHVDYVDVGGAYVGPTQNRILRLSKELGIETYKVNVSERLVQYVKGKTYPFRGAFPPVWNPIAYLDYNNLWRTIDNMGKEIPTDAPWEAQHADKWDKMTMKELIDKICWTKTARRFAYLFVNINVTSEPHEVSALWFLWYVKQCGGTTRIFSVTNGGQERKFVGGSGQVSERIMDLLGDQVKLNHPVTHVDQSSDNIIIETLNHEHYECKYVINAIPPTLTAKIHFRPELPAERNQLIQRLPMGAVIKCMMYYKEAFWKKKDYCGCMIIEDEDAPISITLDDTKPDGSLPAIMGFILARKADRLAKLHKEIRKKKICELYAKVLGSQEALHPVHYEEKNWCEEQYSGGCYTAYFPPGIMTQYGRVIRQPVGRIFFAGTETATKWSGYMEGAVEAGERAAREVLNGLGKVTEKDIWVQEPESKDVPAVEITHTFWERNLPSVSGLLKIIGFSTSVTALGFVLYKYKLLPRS

[3] = target: T4, Voltage-gated L-type calcium channel (CAV1.2) (Homo sapiens, UniProt Q13936); test: Ion channel assay, CAV1.2; format: cell-based
T4 construct: expressed in transfected cells

[4] = target: T5, 5-Hydroxytryptamine (Serotonin) Receptor 3A (5-HT3A) (Homo sapiens, UniProt P46098); test: Ion channel assay, 5-HT3A; format: cell-based
T5 sequence (P46098 24-478): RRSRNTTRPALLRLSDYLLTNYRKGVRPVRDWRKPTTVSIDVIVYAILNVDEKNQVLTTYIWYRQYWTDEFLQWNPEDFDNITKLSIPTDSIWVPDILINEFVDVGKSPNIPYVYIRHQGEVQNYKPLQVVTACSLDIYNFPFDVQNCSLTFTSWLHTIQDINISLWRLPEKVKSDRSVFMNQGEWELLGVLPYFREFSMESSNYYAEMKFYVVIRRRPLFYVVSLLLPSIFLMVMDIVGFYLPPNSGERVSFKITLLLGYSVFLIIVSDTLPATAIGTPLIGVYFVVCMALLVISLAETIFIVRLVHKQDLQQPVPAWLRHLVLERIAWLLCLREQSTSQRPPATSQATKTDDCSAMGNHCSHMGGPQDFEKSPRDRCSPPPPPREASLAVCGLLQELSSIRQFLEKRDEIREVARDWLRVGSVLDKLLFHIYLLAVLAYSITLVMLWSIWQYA

[5] = target: T6, Adrenergic Receptor α1A (ADRA1A) (Homo sapiens, UniProt P35348); test: Calcium flux assay, ADRA1A; format: cell-based
T6 sequence (P35348 1-466): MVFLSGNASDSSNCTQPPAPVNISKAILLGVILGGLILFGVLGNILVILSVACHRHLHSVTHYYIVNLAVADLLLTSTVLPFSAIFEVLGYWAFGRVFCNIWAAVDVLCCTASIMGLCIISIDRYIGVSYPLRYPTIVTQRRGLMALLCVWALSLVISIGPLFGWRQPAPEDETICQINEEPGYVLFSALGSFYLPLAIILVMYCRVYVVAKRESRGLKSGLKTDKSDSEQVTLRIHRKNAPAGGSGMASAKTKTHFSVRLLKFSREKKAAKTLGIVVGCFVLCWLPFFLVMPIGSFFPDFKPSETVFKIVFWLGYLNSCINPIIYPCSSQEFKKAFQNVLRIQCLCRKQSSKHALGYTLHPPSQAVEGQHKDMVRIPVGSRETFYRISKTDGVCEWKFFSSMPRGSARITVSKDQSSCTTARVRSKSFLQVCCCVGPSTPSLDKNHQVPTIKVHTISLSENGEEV

[6] = target: T7, CGMP-inhibited cyclic nucleotide phosphodiesterase 3A (PDE3A) (Homo sapiens, UniProt Q14432); test: Enzymatic assay, PDE3A; format: biochemical
T7 construct: purchased Signal Chem

[7] = target: Dopamine Receptor D2 (DRD2S) (Homo sapiens, UniProt P14416); test: cAMP assay, DRD2S; format: cell-based
[8] = target: T8, Lymphocyte Cell-Specific Protein-Tyrosine Kinase (LCK) (Homo sapiens, UniProt P06239); test: KINOMEscan binding assay, LCK
T8 construct: made in house; host or cells: E. coli BL21-derived host (T7 phage) or HEK-293

[9] = target: T9, Muscarinic acetylcholine Receptor M2 (CHRM2) (Homo sapiens, UniProt P08172); test: cAMP assay, CHRM2; format: cell-based
T9 sequence (P08172 1-466): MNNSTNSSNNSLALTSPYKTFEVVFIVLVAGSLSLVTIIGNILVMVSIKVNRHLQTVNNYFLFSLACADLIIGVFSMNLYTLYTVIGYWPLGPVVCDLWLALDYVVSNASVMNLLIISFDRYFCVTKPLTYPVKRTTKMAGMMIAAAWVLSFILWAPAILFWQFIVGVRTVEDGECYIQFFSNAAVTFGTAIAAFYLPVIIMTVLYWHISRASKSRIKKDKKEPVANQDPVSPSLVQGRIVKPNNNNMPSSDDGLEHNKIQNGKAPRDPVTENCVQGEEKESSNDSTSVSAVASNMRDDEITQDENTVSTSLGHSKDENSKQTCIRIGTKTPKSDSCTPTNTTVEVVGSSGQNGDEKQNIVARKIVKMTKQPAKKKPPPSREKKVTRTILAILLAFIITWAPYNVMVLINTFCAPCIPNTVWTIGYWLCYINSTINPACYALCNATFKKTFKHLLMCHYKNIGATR

[10] = target: Dopamine Receptor D1 (DRD1) (Homo sapiens, UniProt P21728); test: cAMP assay, DRD1; format: cell-based
[11] = target: T10, Rho Associated Coiled-Coil Containing Protein Kinase 1 (ROCK1) (Homo sapiens, UniProt Q13464); test: KINOMEscan binding assay, ROCK1
T10 construct: made in house; host or cells: E. coli BL21-derived host (T7 phage) or HEK-293

hERG = target: T11, hERG (Homo sapiens, UniProt Q12809); test: Ion channel assay, hERG; format: cell-based
T11 construct: expressed in transfected cells

[12] = read-out: MAOA IC50, Table 10, Source: Original data

T8 sequence (P06239 whole entry): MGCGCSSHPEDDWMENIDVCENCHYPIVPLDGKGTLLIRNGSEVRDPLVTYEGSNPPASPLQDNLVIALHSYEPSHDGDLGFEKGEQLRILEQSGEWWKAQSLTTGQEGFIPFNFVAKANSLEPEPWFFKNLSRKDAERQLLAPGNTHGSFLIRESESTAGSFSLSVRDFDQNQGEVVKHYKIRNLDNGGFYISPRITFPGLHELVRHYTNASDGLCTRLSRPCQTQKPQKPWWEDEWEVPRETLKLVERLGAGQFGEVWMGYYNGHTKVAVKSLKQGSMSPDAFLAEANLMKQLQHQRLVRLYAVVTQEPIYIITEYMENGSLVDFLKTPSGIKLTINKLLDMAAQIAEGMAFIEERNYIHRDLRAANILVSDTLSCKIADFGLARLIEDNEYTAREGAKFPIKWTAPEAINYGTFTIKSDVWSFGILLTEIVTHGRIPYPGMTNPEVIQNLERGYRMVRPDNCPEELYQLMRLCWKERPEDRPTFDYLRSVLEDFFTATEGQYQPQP
T1 sequence (P23219 24-599): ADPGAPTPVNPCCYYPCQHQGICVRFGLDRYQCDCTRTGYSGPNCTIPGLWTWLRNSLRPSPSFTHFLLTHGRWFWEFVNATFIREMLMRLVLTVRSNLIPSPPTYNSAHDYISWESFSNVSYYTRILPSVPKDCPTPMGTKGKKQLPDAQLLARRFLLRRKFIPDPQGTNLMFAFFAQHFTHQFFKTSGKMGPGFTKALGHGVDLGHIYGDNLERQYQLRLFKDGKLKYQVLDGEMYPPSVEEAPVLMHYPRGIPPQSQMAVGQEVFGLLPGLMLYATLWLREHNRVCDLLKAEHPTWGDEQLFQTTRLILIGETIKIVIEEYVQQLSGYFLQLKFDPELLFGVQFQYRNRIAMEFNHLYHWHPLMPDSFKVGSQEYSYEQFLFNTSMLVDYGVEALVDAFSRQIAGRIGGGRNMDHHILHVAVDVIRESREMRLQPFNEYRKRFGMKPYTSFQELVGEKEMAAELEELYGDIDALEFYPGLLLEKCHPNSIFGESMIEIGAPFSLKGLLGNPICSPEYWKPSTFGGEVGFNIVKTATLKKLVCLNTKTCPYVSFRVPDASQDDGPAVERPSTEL
Dopamine Receptor D2 (DRD2S), sequence (P14416 1-414 isoform P14416-2): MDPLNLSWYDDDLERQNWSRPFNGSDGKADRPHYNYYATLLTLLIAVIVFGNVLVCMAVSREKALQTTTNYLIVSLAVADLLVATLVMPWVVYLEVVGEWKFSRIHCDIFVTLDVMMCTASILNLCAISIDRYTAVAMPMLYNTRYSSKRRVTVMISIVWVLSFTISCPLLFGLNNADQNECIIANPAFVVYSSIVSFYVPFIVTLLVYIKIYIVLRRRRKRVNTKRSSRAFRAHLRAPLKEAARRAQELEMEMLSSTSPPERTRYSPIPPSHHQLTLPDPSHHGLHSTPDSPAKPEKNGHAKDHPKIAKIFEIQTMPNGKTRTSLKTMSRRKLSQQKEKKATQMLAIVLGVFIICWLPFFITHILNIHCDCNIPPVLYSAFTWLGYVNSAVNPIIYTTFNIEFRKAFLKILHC
T10 sequence (Q13464 whole entry): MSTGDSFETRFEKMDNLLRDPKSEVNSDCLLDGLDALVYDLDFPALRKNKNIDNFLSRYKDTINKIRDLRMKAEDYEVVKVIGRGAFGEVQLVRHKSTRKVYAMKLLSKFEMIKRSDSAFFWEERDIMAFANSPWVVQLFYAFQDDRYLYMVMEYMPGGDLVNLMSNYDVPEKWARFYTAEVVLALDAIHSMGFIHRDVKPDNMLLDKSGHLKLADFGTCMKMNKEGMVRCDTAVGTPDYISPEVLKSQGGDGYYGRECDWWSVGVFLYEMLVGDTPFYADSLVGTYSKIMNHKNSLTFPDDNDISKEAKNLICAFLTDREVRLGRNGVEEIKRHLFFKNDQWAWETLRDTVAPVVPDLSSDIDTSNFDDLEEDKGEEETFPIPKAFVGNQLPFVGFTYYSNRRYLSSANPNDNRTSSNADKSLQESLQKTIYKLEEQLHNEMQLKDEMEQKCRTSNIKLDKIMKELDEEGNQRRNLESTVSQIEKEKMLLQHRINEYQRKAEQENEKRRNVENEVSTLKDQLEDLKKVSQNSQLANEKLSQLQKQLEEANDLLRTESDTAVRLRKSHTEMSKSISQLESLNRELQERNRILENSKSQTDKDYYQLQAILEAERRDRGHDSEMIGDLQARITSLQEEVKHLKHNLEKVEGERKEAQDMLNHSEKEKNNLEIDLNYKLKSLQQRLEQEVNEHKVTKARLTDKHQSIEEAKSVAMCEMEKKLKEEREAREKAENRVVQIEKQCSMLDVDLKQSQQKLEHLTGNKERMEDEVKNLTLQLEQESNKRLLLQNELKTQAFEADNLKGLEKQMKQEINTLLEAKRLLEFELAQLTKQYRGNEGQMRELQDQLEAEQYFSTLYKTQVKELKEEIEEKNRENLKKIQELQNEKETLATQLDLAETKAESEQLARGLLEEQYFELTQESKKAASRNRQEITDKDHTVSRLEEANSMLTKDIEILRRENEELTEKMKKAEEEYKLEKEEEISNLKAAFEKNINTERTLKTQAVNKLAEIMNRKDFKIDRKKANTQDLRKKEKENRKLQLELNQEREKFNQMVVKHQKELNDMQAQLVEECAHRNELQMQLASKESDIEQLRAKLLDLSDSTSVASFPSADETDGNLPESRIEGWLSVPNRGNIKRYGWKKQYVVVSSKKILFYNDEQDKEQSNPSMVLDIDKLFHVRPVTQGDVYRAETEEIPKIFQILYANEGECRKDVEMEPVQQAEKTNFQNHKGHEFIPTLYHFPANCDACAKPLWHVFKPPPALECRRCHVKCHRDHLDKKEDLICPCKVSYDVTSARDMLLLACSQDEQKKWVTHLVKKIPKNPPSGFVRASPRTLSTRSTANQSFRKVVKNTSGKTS
T2 sequence (P35968 20-1356): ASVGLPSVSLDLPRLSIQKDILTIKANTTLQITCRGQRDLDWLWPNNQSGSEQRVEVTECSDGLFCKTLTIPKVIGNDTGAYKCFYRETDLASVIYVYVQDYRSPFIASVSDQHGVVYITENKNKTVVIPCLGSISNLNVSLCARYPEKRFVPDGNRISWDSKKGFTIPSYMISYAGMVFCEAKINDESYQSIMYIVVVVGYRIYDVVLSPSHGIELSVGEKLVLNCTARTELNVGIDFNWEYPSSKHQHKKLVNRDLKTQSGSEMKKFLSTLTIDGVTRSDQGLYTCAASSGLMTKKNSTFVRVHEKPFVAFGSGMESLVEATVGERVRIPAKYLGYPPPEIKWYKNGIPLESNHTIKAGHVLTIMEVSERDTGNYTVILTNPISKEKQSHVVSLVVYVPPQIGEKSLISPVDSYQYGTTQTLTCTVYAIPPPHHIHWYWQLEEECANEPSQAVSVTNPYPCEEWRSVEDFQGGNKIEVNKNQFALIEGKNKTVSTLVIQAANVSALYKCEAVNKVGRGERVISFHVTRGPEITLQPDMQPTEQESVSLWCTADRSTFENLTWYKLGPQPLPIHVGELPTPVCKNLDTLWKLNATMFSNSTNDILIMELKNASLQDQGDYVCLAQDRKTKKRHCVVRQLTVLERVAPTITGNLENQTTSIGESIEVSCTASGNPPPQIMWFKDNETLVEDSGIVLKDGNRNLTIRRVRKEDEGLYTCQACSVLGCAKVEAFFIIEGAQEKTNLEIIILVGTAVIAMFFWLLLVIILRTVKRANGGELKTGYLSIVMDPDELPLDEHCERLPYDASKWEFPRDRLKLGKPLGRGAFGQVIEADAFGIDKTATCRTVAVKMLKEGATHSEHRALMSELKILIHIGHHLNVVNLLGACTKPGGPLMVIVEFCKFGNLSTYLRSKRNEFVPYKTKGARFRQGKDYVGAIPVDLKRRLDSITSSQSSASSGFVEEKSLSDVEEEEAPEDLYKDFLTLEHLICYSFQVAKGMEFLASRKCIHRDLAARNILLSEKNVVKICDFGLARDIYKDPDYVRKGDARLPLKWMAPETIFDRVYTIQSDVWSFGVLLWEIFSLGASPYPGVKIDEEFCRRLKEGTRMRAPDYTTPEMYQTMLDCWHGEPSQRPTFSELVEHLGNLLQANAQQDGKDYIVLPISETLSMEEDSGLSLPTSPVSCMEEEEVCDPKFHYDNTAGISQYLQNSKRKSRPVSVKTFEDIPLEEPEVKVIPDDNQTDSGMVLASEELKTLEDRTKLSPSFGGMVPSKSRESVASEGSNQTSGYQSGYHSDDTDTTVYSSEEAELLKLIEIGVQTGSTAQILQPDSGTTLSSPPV
Dopamine Receptor D1 (DRD1), sequence (P21728 whole entry): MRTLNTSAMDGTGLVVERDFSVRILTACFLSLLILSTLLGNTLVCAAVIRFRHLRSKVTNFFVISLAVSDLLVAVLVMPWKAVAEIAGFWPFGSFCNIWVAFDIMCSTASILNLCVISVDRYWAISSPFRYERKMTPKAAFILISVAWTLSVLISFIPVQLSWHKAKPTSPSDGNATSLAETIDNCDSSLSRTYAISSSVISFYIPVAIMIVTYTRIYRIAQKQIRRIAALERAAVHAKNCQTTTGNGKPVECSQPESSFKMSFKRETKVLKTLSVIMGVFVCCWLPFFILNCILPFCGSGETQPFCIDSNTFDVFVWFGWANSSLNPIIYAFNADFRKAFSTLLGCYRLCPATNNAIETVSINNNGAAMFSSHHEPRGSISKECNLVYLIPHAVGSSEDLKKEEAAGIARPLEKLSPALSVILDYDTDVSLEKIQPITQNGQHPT

Compound	pIC50 (Cyclooxygenase 1 (COX1))	pIC50 [1]	pIC50 [2]	pIC50 [2, 12]	pIC50 [3]	pEC50 [4]	pIC50 [4]	pEC50 [5]	pIC50 [5]	pIC50 [6]	pEC50 [7]	pIC50 [7]	pIC50 [8]	pEC50 [9]	pIC50 [9]	pEC50 [10]	pIC50 [10]	pIC50 [11]	pIC50 (hERG)	MAOA inhibition (MAOI or not, in words) ([2]; original data)
CNC(C)C(=O)c1c[nH]c2ccc(Br)cc12 (stereo not shown) [BK-5Br-NM-AMT, 1-(5-bromo-1H-indol-3-yl)-2-(methylamino) propan-1-one hydrochloride]	< 5.00	< 5.00	< 5.00	< 5.00	< 5.00	< 5.00	6.17	5.08	< 5.00	< 5.00	< 5.00	5.37	< 5.00	< 5.00	< 5.00	< 5.00	5.01	< 5.00	< 5.00	–
CNC(C)C(=O)c1c[nH]c2ccc(Cl)cc12 (stereo not shown) [BK-5Cl-NM-AMT, 1-(5-chloro-1H-indol-3-yl)-2-(methylamino) propan-1-one hydrochloride]	< 5.00	< 5.00	< 5.00	< 5.00	< 5.00	< 5.00	6.02	< 5.00	< 5.00	< 5.00	< 5.00	5.21	< 5.00	< 5.00	< 5.00	< 5.00	< 5.00	< 5.00	< 5.00	–
CNC(C)C(=O)c1c[nH]c2ccc(F)cc12 (stereo not shown) [BK-5F-NM-AMT, 1-(5-Fluoro-1H-indol-3-yl)-2-(methylamino) propan-1-one hydrochloride]	< 5.00	< 5.00	< 5.00	< 5.00	< 5.00	< 5.00	< 4.52	< 5.00	< 5.00	< 5.00	< 5.00	5.28	< 5.00	< 5.00	< 5.00	< 5.00	< 5.00	< 5.00	< 5.00	is not an MAOI

— patent publication US20230257347A1 (priority 2020, published 2023)
